Legend:
[1] = test system: Primary cultures of skeletal muscle cells; assay: Primary cultures of skeletal muscle cells treated with GTE and EGCG (MyHC staining, Western blot); type: cell-based, mice
Procedure: GTE and EGCG also display unexpected pro myogenic properties. Primary cultures of skeletal muscle cells were established from both normal and dystrophic mice and treated with GTE and EGCG for 1-7 days. […] The amount of myotubes reached similar level with both agents compared to control thereafter. Western-blot analysis was performed on myotube cultures treated for 7 days.

[2] = test system: Utrophin A promoter linked to a luciferase reporter gene (H2K/mdx/Utro A reporter cell line); assay: Luciferase reporter assay (murine H2K cells); type: cell-based; conditions: Mus musculus; final concentration of 10 μM; incubated for a further 48 hrs
Procedure: The cell line used for the screen is an immortalized mdx mouse H2K cell line that has been stably transfected with a plasmid containing ≈5 kb fragment of the Utrophin A promoter including the first untranslated […] linked to a luciferase reporter gene.
Under conditions of low temperature and interferon containing media, the cells remain as myoblasts. These are plated into 96 well plates and cultured in the presence of compound for three days. The level of luciferase is then determined by cell lysis and reading of the light output from the expressed luciferase gene utilising a plate luminometer.
The H2K/mdx/Utro A reporter cell line was passaged twice a week until ≦30% confluent. The cells were grown at 33° C. in the presence of 10% CO2
To remove the myoblasts for platting, they were incubated with Trypsin/EDTA until the monolayer started to detach.
• DMEM Gibco 41966 • 20% FCS • 1% Pen/Strep • 1% glutamine • 10 mls Chick embryo extract • Interferon(1276 905 Roche) Add fresh 10 μl/50 mls medium
The H2K/mdx/Utro A reporter cell line cells were plated out into 96 well plates (Falcon 353296, white opaque) at a density of approximately 5000 cells/well in 190 μl normal growth medium. The plates were then incubated at 33° C. in the presence of 10% CO2 for 24 hrs.
Compounds were dosed by adding 10 μl of diluted compound to each well giving a final concentration of 10 μM. The plates were then incubated for a further 48 hrs
Cells were then lysed in situ following the manufacture's protocols (Promega Steady-Glo Luciferase Assay System (E2520). Then counted for 10 seconds using a plate luminometer (Victor1420).

[3] = test system: mdx hearts; conditions: cited from earlier work
[4] = Western blot, myotube cultures treated for 7 days

SMILES	activity at 10 µM [2] [%]	other results
O=C(O[C@@H]1Cc2c(O)cc(O)cc2O[C@@H]1c1cc(O)c(O)c(O)c1)c1cc(O)c(O)c(O)c1 [EGCG, epigallocatechin gallate]	–	expression of desmin [1, 4]: down-regulated; expression of muscle-specific proteins (dystrophin in control cultures, sarcomeric alpha actinin, MyHC) [1, 4]: promoted the expression; myogenin expression [1, 4]: unchanged; rate of formation of myotubes (in situ staining of MyHC) ([1]; within the first 2-4 days of application, normal and dystrophic mice cells): concentration-dependently stimulated
CCCCC(=O)Nc1cc2nn(-c3ccc(Cl)cc3)nc2cc1C [Example 9, N-(2-(4-chlorophenyl)-6-methyl-2H-benzo[d][1,2,3]triazol-5-yl)pentanamide]	201 to 300	–
Nc1ccc2nn(-c3ccc(N4CCCCC4)cc3)nc2c1 [Example 40, 2-(4-(piperidin-1-yl)phenyl)-2H-benzo[d][1,2,3]triazol-5-amine]	201 to 300	–
Cc1cc2nn(-c3ccc(Cl)cc3)nc2cc1NC(=O)c1cccs1 [Example 6, N-(2-(4-chlorophenyl)-6-methyl-2H-benzo[d][1,2,3]triazol-5-yl)thiophene-2-carboxamide]	301 to 400	–
CS(=O)(=O)c1ccc2cn(-c3ccc(Cl)cc3)nc2c1 [Example 44, 2-(4-chlorophenyl)-6-(methylsulfonyl)-2H-indazole]	201 to 300	–
CCN(CC)c1ccc(-n2nc3ccc(N)cc3n2)cc1 [Example 19, 2-(4-(diethylamino)phenyl)-2H-benzo[d][1,2,3]triazol-5-amine]	301 to 400	–
CCN(CC)c1ccc(-n2nc3ccc(NC(=O)c4ccc(N(C)C)cc4)cc3n2)cc1 [Example 33, N-(2-(4-(diethylamino)phenyl)-2H-benzo[d][1,2,3]triazol-5-yl)-4-(dimethylamino)benzamide]	< 200	–
CCN(CC)c1ccc(-n2nc3ccc(NC(=O)c4cccnc4)cc3n2)cc1 [Example 20, N-(2-(4-(diethylamino)phenyl)-2H-benzo[d][1,2,3]triazol-5-yl)nicotinamide]	201 to 300	–
CC(C)C(=O)Nc1ccc2nn(-c3ccc(Cl)c(Cl)c3)nc2c1 [Example 53, N-(2-(3,4-Dichlorophenyl)-2H-benzo[d][1,2,3]triazol-5-yl)isobutyramide]	> 401	–
COc1ccc(-n2nc3cc(C)c(NC(C)=O)cc3n2)cc1 [Example 66, N-(2-(4-methoxyphenyl)-6-methyl-2H-benzo[d][1,2,3]triazol-5-yl)acetamide]	< 200	–
CCN(CC)c1ccc(-n2nc3ccc(NC(C)=O)cc3n2)cc1 [Example 22, N-(2-(4-(diethylamino)phenyl)-2H-benzo[d][1,2,3]triazol-5-yl)acetamide]	201 to 300	–
Cc1ccc(-n2nc3cc(C)c(N)cc3n2)cc1 [Example 65, 6-methyl-2-p-tolyl-2H-benzo[d][1,2,3]triazol-5-amine]	201 to 300	–
CCCCC(=O)Nc1ccc2nn(-c3ccc(N(CC)CC)cc3)nc2c1 [Example 25, N-(2-(4-(diethylamino)phenyl)-2H-benzo[d][1,2,3]triazol-5-yl)pentanamide]	< 200	–
Cc1cc2nn(-c3ccc(Cl)cc3)nc2cc1NC(=O)c1cccnc1 [Example 1, N-(2-(4-chlorophenyl)-6-methyl-2H-benzo[d][1,2,3]triazol-5-yl)nicotinamide]	301 to 400	–
O=[N+]([O-])c1ccc2cn(-c3ccc(Cl)cc3)nc2c1 [Example 45, 2-(4-chlorophenyl)-6-nitro-2H-indazole]	< 200	–
CC(C)C(=O)Nc1ccc2cn(-c3ccc(Cl)cc3)nc2c1 [Example 46, N-(2-(4-chlorophenyl)-2H-indazol-6-yl)isobutyramide]	> 401	–

SMILES	activity at 10 µM [2] [%]	other results
CCCCC(=O)Nc1cc2nn(-c3ccc(N(CC)CC)cc3)nc2cc1C [Example 16, N-(2-(4-(diethylamino)phenyl)-6-methyl-2H-benzo[d][1,2,3]triazol-5-yl)pentanamide]	< 200	–
Cc1ccc(-n2nc3ccc(N)cc3n2)cc1C [Example 63, 2-(3,4-dimethylphenyl)-2H-benzo[d][1,2,3]triazol-5-amine]	< 200	–
CS(=O)(=O)c1ccc2nn(-c3ccc(Cl)cc3)[n+]([O-])c2c1 [Example 47, 2-(4-chlorophenyl)-6-(methylsulfonyl)-2H-benzo[d][1,2,3]triazole 1-oxide]	< 200	–
CCCc1nn(C)c2c(=O)[nH]c(-c3cc(S(=O)(=O)N4CCN(C)CC4)ccc3OCC)nc12 [sildenafil]	–	myocardial contractile performance [3]: prevents deterioration
CCN(CC)c1ccc(-n2nc3cc(C)c(NC(=O)c4cccnc4)cc3n2)cc1 [Example 12, N-(2-(4-(diethylamino)phenyl)-6-methyl-2H-benzo[d][1,2,3]triazol-5-yl)nicotinamide]	301 to 400	–
CCc1ccc(-n2nc3ccc(N)cc3n2)cc1 [Example 68, 2-(4-ethylphenyl)-2H-benzo[d][1,2,3]triazol-5-amine]	201 to 300	–
CCOc1ccc(-n2nc3cc(C)c(N)cc3n2)cc1 [Example 64, 2-(4-ethoxyphenyl)-6-methyl-2H-benzo[d][1,2,3]triazol-5-amine]	201 to 300	–
COc1ccc(C(=O)Nc2cc3nn(-c4ccc(Cl)cc4)nc3cc2C)cc1 [Example 4, N-(2-(4-chlorophenyl)-6-methyl-2H-benzo[d][1,2,3]triazol-5-yl)-4-methoxybenzamide]	201 to 300	–
Nc1ccc2nn(-c3ccc(Cl)cc3)nc2c1 [Example 38, 2-(4-chlorophenyl)-2H-benzo[d][1,2,3]triazol-5-amine]	< 200	–
CN(C)c1ccc(-n2nc3ccc(N)cc3n2)cc1 [Example 41, 2-(4-(dimethylamino)phenyl)-2H-benzo[d][1,2,3]triazol-5-amine]	301 to 400	–
CCN(CC)c1ccc(-n2nc3ccc(NC(=O)C(C)C)cc3n2)cc1 [Example 26, N-(2-(4-(diethylamino)phenyl)-2H-benzo[d][1,2,3]triazol-5-yl)isobutyramide]	< 200	–
CCCC(=O)Nc1cc2nn(-c3ccc(N(CC)CC)cc3)nc2cc1C [Example 15, N-(2-(4-(diethylamino)phenyl)-6-methyl-2H-benzo[d][1,2,3]triazol-5-yl)butyramide]	< 200	–
CCN(CC)c1ccc(-n2nc3ccc(NC(=O)c4ccccc4OC)cc3n2)cc1 [Example 31, N-(2-(4-(diethylamino)phenyl)-2H-benzo[d][1,2,3]triazol-5-yl)-2-methoxybenzamide]	< 200	–
Cc1cc2nn(-c3ccc(Cl)cc3)nc2cc1NC(=O)c1ccco1 [Example 11, N-(2-(4-chlorophenyl)-6-methyl-2H-benzo[d][1,2,3]triazol-5-yl)furan-2-carboxamide]	201 to 300	–
CCN(CC)c1ccc(-n2nc3ccc(NC(=O)c4ccc(OC)cc4)cc3n2)cc1 [Example 30, N-(2-(4-(diethylamino)phenyl)-2H-benzo[d][1,2,3]triazol-5-yl)-4-methoxybenzamide]	< 200	–
